ChEMBL document CHEMBL1130476, “Molecular modeling of the interaction of trypanocide guanyl hydrazones with B-DNA” (1997)

Tested on: Trypanosoma cruzi
Experiment: Inhibitory dose for selectivity against Trypanosoma cruzi
Type: functional
Conditions: read-out: ID50 (the source's name)

IC50 | SMILES
205 µM | N=C(N)N/N=C/c1ccccc1
877 µM | N=C(N)N/N=C/c1cccc([N+](=O)[O-])c1O
23.7 µM | N=C(N)N/N=C/c1cc2c(cc1Br)OCO2
4800 µM | COc1cc(/C=N/NC(=N)N)ccc1O
22.5 µM | COc1cccc(/C=N/NC(=N)N)c1OC
27.4 µM | N=C(N)N/N=C/c1ccc(Cl)cc1

SMILES | IC50
N=C(N)N/N=C/c1ccc2c(c1)OCO2 | 274 µM
